How the values were obtained:
[1] = test system: IL-1β release, THP-1 cells; assay: Reduction of β-amyloid-induced increased release of interleukin-1β in LPS-stimulated THP-1 cells (ELISA); format: cell-based; conditions: Homo sapiens, test compound 100 μM, LPS 0.5 μg/mL + Aβ(25-35) 5 μM, 48 hours, stated as alternative: this 'or' Aβ(1-42) sheet formation, tested in at least one test, read-out: inhibition of β-amyloid-induced increase release of interleukin-1β compared to the controls
Method: THP-1 cells, a human monocyte cell line from American Type Culture Collection, were grown in RPMI-1640 medium plus 10% fetal bovine serum (FBS, not heat-inactivated) in T-flasks. The medium was changed every two days by spinning down the cells (800 rpm, 5 minutes) and adding the same fresh medium. Alternatively, the cultures were maintained by supplementation with fresh medium. The cultures were maintained at a cell concentration ranging from between 1×10^5 and 1×10^6 cells/mL. Because sera may contain unknown factors which can affect macrophage/monocyte IL-1 production, the FBS was reduced to 5% for 24 hours. The FBS was further reduced to 2% over two days prior to starting each experiment. The cells were collected by centrifugation and resuspended in media containing 2% FBS. Cell numbers were calculated and cells were plated on 24-well plates (3×10^5 cells/0.6 mL/well). Cells were then treated with LPS (0.5 μg/mL) alone or in combination with Aβ peptides (5 μM). […]
1L-1β secretions into medium by LPS-stimulated THP-1 cells, in the presence or absence of amyloid peptides and a test compound, were assayed with a commercially available ELISA kit (R & D Systems). […] Color development was stopped with 2 N sulfuric acid and the optical density of the standard and the test samples was measured at 450 nm. The amount of IL-1β present in the samples were calculated based upon a standard curve. […]

synthetic Aβ(1-42) = assay: Inhibition of Aβ beta-pleated sheet formation (thioflavin T fluorescence); format: biochemical; conditions: test compound 10 μM, ThT 3 μM, PBS pH 6.0, 12 hours; stated as alternative: this 'or' IL-1β release, tested in at least one test
Excerpt: The deposition of amyloid β-peptide (Aβ) is associated with the development of Alzheimer's disease. See, for example, G. G. Glenner et al. (1984) Biochem. Biophys. Res. Commun., 120:885-890; and R. E. Tanzi (1989) Ann. Med, 21:91-94. Accordingly, compounds which effectively disrupt the formation of Aβ(1-40) or Aβ(1-42) beta-pleated sheets are potentially useful for preventing and/or reversing such amyloid deposits. Thioflavin T (ThT) is known to rapidly associate with beta-pleated sheets, particularly the aggregated fibrils of synthetic Aβ(1-42). This association gives rise to an excitation maximum at 440 nm and to an emission at 490 nm.
The experiments were performed using a CytoFluor II fluorescence plate reader having the following parameters:
Into each well was aliquoted 95 μl of ThT (3 μM) prepared in PBS (pH 6.0), 2 μL of the compound to be tested (10 μM) prepared with 0.05% of methylcellulose in PBS (pH 6.0), and 3 μL of Aβ(1-42)(3 μg) prepared with dH2 O. The fluorescence measurement began when the Aβ(1-42) was added and continued for a total of 12 hours. The percent inhibition of beta-pleated sheet formation was calculated from the relative fluorescence unit difference between aggregation in the presence and in the absence of the test compounds. Inhibition of Aβ(1-42) beta-pleated sheet formation by at least 30% compared to the controls is considered significant in this test.

Compound	inhibition at 100 µM [1] [%]	inhibition of Aβ(1-42) beta-pleated sheet formation compared to the controls (synthetic Aβ(1-42))
COc1ccc(Sc2ccc(C=[N+]([O-])C3CCCCC3)s2)cc1 [Example 2, α-[2-(4-Methoxyphenylthio)-5-thienyl]-N-cyclohexylnitrone]	≥ 30	at least 30%
COc1ccc(Sc2ccc(C=[N+]([O-])C(C)(C)C)s2)cc1 [Example 1, α-[2-(4-Methoxyphenylthio)-5-thienyl]-N-tert-butylnitrone]	≥ 30	at least 30%
